# Assays:
# [1] = test system: NQO1 and HMOX1 protein in SH-SY5Y cells; assay: Western blot of Nrf2 target proteins in SH-SY5Y; type: cell-based, human; details: 24 h
# Protocol: SH-SY5Y cells were plated in 6-well plates at a density of 4×10^5 cells per well. BV-2 cells were plated in 6-well plates at a density of 2.5×10^4 cells per well. […] Following treatment, cells were washed twice with cold PBS and harvested in lysis buffer. Cells were sonicated and debris was cleared by centrifugation (10 min @ 18,000 rcf, Beckman Coulter, microfuge 18 centrifuge). Total protein in supernatant was quantified using Bio-Rad protein reagent with BSA as a standard. Equal amounts of total cellular protein were separated on SDS-PAGE, and proteins were transferred to nitrocellulose membrane. Membranes were blocked for 1 hour in TBST (1×TBS with 0.1% Tween-20) containing 5% milk, washed 3 times with TBST, and incubated with primary antibodies overnight at 4° C. NQO1 antibody was from Abcam (#AB2346); HMOX1 (HO-1) antibody was from Santa Cruz (#sc-10789); actin antibody was from Millipore (#MAB 1501). After washing with TBST, secondary antibodies were added in TBST+5% milk for 1 h at room temperature. AffiniPure goat anti-rabbit or anti-mouse IgG secondary antibodies were from Jackson ImmunoResearch (catalog #111-035-144 and #115-035-146, respectively). Membranes were washed in TBST, developed using ECL, and exposed to X-ray film. […] HMOX1 protein was not detected in untreated or RTA 408-treated SH-SY5Y cells. […] The same amount of 63170 (54.6 nM) was required.
# [2] = Oral pharmacokinetics, statements pooled over mice, rats, and monkeys; type: in vivo; details: mouse, rat, monkey, plasma; after oral administration; read-out: Apparent terminal half-life
# Protocol: Measurements were performed on TQD and QToF mass spectrometers (Waters).
# Following oral administration of a suspension formulation at doses of 10 to 100 mg/kg, maximal concentrations were observed within 1 to 2 h in mice, and within 1 to 24 h in rats and monkeys.
# [3] = test system: NQO1 enzymatic activity in RAW264.7 mouse macrophage cells; assay: NQO1 enzymatic activity (modified Prochaska assay) in RAW264.7; type: cell-based; details: RAW264.7, 24 h
# Protocol: Consistent with induction of Nrf2 target genes and corresponding protein products, treatment of RAW264.7 mouse macrophage cells for 24 h increased NQO1 enzymatic activity in a dose-dependent manner, with increases evident at 7.8 nM (FIG. 7). NQO1 enzymatic activity was measured by a modified Prochaska assay (Prochaska and Santamaria, Anal Biochem. 169:328-336, 1988, which is incorporated herein by reference).
# [4] = test system: STAT3 phosphorylation in HeLa cells; assay: IL-6-induced STAT3 phosphorylation in HeLa; type: cell-based, human; details: 1 μM, 6 h pretreatment
# [5] = test system: human NQO1 ARE (Nrf2) in HuH-7 human hepatoma cells; assay: NQO1-ARE luciferase reporter in HuH-7; type: cell-based; details: 15.6 nM, 18 h
# Description: The first luciferase reporter tested was under the control of a single ARE derived from the promoter of the human NQO1 gene, which allows for quantitative assessment of the endogenous activity of the Nrf2 transcription factor in cultured mammalian cells. […] The NQO1-ARE-luciferase reporter plasmid was constructed by inserting the human NQO1-ARE ([NT] ID NO: 31) into the pLuc-MCS vector using HindIII/XhoI cloning sites (GenScript Corp., Piscataway, N.J.). […] Firefly and Renilla luciferase activity was assayed by Dual-Glo Luciferase Assay (cat # E2920, Promega), and the luminescence signal was measured on an L-Max II luminometer (Molecular Devices). Firefly luciferase activity was normalized to the Renilla activity, and fold induction over a vehicle control (DMSO) of normalized Firefly activity was calculated. […] Values represent the average of three independent experiments.
# [6] = Metabolism in human liver microsomes; type: in vitro ADME; details: 60-min incubation, NADPH and UGT
# CYP3A4/5 = assay: CYP450 inhibition in pooled human liver microsomes, CYP3A4/5; type: in vitro ADME; details: read-out: Ki, direct inhibition of CYP3A4/5
# Description: In addition, there was little or no evidence of metabolism-dependent inhibition of any of the enzymes tested.
# [7] = test system: acute radiation dermatitis; assay: Acute radiation dermatitis in BALB/c mice; type: in vivo, mouse
compound,measurement,setting,value
"CC1(C)CC[C@]2(NC(=O)C(C)(F)F)CC[C@]3(C)[C@H](C(=O)C=C4[C@@]5(C)C=C(C#N)C(=O)C(C)(C)[C@@H]5CC[C@]43C)[C@@H]2C1 [RTA 408, N-((4aS,6aR,6bS,8aR,12aS,14aR,14bS)-11-cyano-2,2,6a,6b,9,9,12a-heptamethyl-10,14-dioxo-1,2,3,4,4a,5,6,6a,6b,7,8,8a,9,10,12a,14,14a,14b-octadecahydropicen-4a-yl)-2,2-difluoropropanamide]",NQO1 protein levels,[1],increased NQO1 protein levels in SH-SY5Y cells in a dose-dependent manner
same,half-life,[2],6 to 26 h
same,Concentration at which increases in NQO1 enzymatic activity were evident,[3],7.8 nM
same,IL-6-induced phosphorylation of STAT3,[4],inhibited phosphorylation of STAT3 induced by IL-6
same,"Induction of luciferase activity, NQO1-ARE reporter",[5],~2 fold
same,Parent molecule remaining,[6],< 10%
same,Ki,CYP3A4/5,~500 nM
same,% animal-days >=2,[7]; oral 3 mg/kg,32.5%
same,% animal-days >=3,[7]; oral 3 mg/kg,1.3%
same,"% mice scored above 3 in clinical dermatitis exam, Day 16",[7]; oral 3 mg/kg,10%
same,"% mice scored above 3 in clinical dermatitis exam, Day 18",[7]; oral 3 mg/kg,10%
same,"% mice scored above 3 in clinical dermatitis exam, Day 20",[7]; oral 3 mg/kg,0%
same,"% mice scored above 3 in clinical dermatitis exam, Day 22",[7]; oral 3 mg/kg,0%
same,"% mice scored above 3 in clinical dermatitis exam, Day 24",[7]; oral 3 mg/kg,0%
same,"% mice scored above 3 in clinical dermatitis exam, Day 26",[7]; oral 3 mg/kg,0%
same,"% mice scored above 3 in clinical dermatitis exam, Day 28",[7]; oral 3 mg/kg,0%
same,% animal-days >=2,[7]; oral 10 mg/kg,33.8%
same,% animal-days >=3,[7]; oral 10 mg/kg,4.1%
same,"% mice scored above 3 in clinical dermatitis exam, Day 16",[7]; oral 10 mg/kg,10%
same,"% mice scored above 3 in clinical dermatitis exam, Day 18",[7]; oral 10 mg/kg,25%
same,"% mice scored above 3 in clinical dermatitis exam, Day 20",[7]; oral 10 mg/kg,30%
same,"% mice scored above 3 in clinical dermatitis exam, Day 22",[7]; oral 10 mg/kg,0%
same,"% mice scored above 3 in clinical dermatitis exam, Day 24",[7]; oral 10 mg/kg,0%
same,"% mice scored above 3 in clinical dermatitis exam, Day 26",[7]; oral 10 mg/kg,0%
same,"% mice scored above 3 in clinical dermatitis exam, Day 28",[7]; oral 10 mg/kg,0%
same,% animal-days >=2,[7]; oral 30 mg/kg,28.8%
same,% animal-days >=3,[7]; oral 30 mg/kg,2.5%
same,"% mice scored above 3 in clinical dermatitis exam, Day 16",[7]; oral 30 mg/kg,10%
same,"% mice scored above 3 in clinical dermatitis exam, Day 18",[7]; oral 30 mg/kg,20%
same,"% mice scored above 3 in clinical dermatitis exam, Day 20",[7]; oral 30 mg/kg,10%
same,"% mice scored above 3 in clinical dermatitis exam, Day 22",[7]; oral 30 mg/kg,0%
same,"% mice scored above 3 in clinical dermatitis exam, Day 24",[7]; oral 30 mg/kg,0%
same,"% mice scored above 3 in clinical dermatitis exam, Day 26",[7]; oral 30 mg/kg,0%
same,"% mice scored above 3 in clinical dermatitis exam, Day 28",[7]; oral 30 mg/kg,0%
same,% animal-days >=2,[7]; topical 0.01% in sesame oil,14.4%
same,% animal-days >=3,[7]; topical 0.01% in sesame oil,0.0%
same,"% mice scored above 2 in clinical dermatitis exam, Day 12",[7]; topical 0.01% in sesame oil,0.0%
same,"% mice scored above 2 in clinical dermatitis exam, Day 14",[7]; topical 0.01% in sesame oil,0.0%
same,"% mice scored above 2 in clinical dermatitis exam, Day 16",[7]; topical 0.01% in sesame oil,20.0%
same,"% mice scored above 2 in clinical dermatitis exam, Day 18",[7]; topical 0.01% in sesame oil,50.0%
same,"% mice scored above 2 in clinical dermatitis exam, Day 20",[7]; topical 0.01% in sesame oil,10.0%
same,"% mice scored above 2 in clinical dermatitis exam, Day 22",[7]; topical 0.01% in sesame oil,40.0%
same,"% mice scored above 2 in clinical dermatitis exam, Day 24",[7]; topical 0.01% in sesame oil,40.0%
same,"% mice scored above 2 in clinical dermatitis exam, Day 26",[7]; topical 0.01% in sesame oil,40.0%
same,"% mice scored above 2 in clinical dermatitis exam, Day 28",[7]; topical 0.01% in sesame oil,20.0%
same,"% mice scored above 2 in clinical dermatitis exam, Day 30",[7]; topical 0.01% in sesame oil,10.0%
same,% animal-days >=2,[7]; topical 0.1% in sesame oil,16.3%
same,% animal-days >=3,[7]; topical 0.1% in sesame oil,0.0%
same,"% mice scored above 2 in clinical dermatitis exam, Day 12",[7]; topical 0.1% in sesame oil,7.1%
same,"% mice scored above 2 in clinical dermatitis exam, Day 14",[7]; topical 0.1% in sesame oil,10.0%
same,"% mice scored above 2 in clinical dermatitis exam, Day 16",[7]; topical 0.1% in sesame oil,20.0%
same,"% mice scored above 2 in clinical dermatitis exam, Day 18",[7]; topical 0.1% in sesame oil,80.0%
same,"% mice scored above 2 in clinical dermatitis exam, Day 20",[7]; topical 0.1% in sesame oil,60.0%
same,"% mice scored above 2 in clinical dermatitis exam, Day 22",[7]; topical 0.1% in sesame oil,40.0%
same,"% mice scored above 2 in clinical dermatitis exam, Day 24",[7]; topical 0.1% in sesame oil,30.0%
same,"% mice scored above 2 in clinical dermatitis exam, Day 26",[7]; topical 0.1% in sesame oil,10.0%
same,"% mice scored above 2 in clinical dermatitis exam, Day 28",[7]; topical 0.1% in sesame oil,0.0%
same,"% mice scored above 2 in clinical dermatitis exam, Day 30",[7]; topical 0.1% in sesame oil,0.0%
same,% animal-days >=2,[7]; topical 1.0% in sesame oil,9.7%
same,% animal-days >=3,[7]; topical 1.0% in sesame oil,0.0%
same,"% mice scored above 2 in clinical dermatitis exam, Day 12",[7]; topical 1.0% in sesame oil,10.7%
same,"% mice scored above 2 in clinical dermatitis exam, Day 14",[7]; topical 1.0% in sesame oil,20.0%
same,"% mice scored above 2 in clinical dermatitis exam, Day 16",[7]; topical 1.0% in sesame oil,10.0%
same,"% mice scored above 2 in clinical dermatitis exam, Day 18",[7]; topical 1.0% in sesame oil,70.0%
same,"% mice scored above 2 in clinical dermatitis exam, Day 20",[7]; topical 1.0% in sesame oil,30.0%
same,"% mice scored above 2 in clinical dermatitis exam, Day 22",[7]; topical 1.0% in sesame oil,10.0%
same,"% mice scored above 2 in clinical dermatitis exam, Day 24",[7]; topical 1.0% in sesame oil,0.0%
same,"% mice scored above 2 in clinical dermatitis exam, Day 26",[7]; topical 1.0% in sesame oil,0.0%
same,"% mice scored above 2 in clinical dermatitis exam, Day 28",[7]; topical 1.0% in sesame oil,0.0%
same,"% mice scored above 2 in clinical dermatitis exam, Day 30",[7]; topical 1.0% in sesame oil,0.0%
